From BindingDB's records for doi:10.7270/Q2DF6PMF (Nmmlsc, 2007)
pIC50, pKi: −log10 of the molar value.

These compounds were tested against T1, N-formyl peptide receptor 2 (Homo sapiens, UniProt P25090) (assay: concentration-dependent FPRL1 ligand displacement – cell-based, FPR counter-screen, fluorescent ligand, dose response (AID 520)).
T1 sequence (P25090 whole entry): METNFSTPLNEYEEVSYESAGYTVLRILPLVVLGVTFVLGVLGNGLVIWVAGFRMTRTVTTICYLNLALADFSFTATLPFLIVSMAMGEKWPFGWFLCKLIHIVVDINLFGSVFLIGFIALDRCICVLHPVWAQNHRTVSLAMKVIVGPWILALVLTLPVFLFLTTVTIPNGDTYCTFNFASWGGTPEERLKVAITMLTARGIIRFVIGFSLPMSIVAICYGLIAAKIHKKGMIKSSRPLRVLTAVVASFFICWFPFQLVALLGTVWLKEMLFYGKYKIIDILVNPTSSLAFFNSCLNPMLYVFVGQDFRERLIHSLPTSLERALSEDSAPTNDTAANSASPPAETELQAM
Compound `COC(=O)c1[nH]c(C)c(C(=O)C2C(=O)C(=O)N(CCN3CCOCC3)C2c2cccnc2)c1C` (centres undefined) [4-[(E)-hydroxy-[1-[2-(4-morpholinyl)ethyl]-4,5-dioxo-2-(3-pyridinyl)-3-pyrrolidinylidene]methyl]-3,5-dimethyl-1H-pyrrole-2-carboxylic acid methyl ester] has a pIC50 of less than 4.18 and a pKi of less than 4.39.
For `CCOC(=O)N1CCC(NC(=O)c2cc(C(=O)Nc3ccc(OC)c(OC)c3)ccc2CO)CC1` [4-[[5-[(3,4-dimethoxyphenyl)carbamoyl]-2-methylol-benzoyl]amino]piperidine-1-carboxylic acid ethyl ester], the pIC50 was less than 4.18.
With `O=C(c1ccc(Cl)cc1)N(Cc1cccs1)C1CCS(=O)(=O)C1` (centres undefined) [4-chloro-N-(1,1-diketothiolan-3-yl)-N-(2-thenyl)benzamide] the pIC50 was less than 4.18.
`CC1CCN(c2nc(-c3ccccc3)c(C#N)c(=O)[nH]2)CC1` [4-hydroxy-2-(4-methylpiperidin-1-yl)-6-phenylpyrimidine-5-carbonitrile] was tested, and the pIC50 was less than 4.18.
`O=C(O)CCCNc1cc(N2CCC3(CC2)OCCO3)c2noc3c2c1C(=O)c1ccccc1-3` [4-{[3-(1,4-dioxa-8-azaspiro[4.5]dec-8-yl)-6-oxo-6H-anthra[1,9-cd]isoxazol-5-yl]amino}butanoic acid] showed a pIC50 of 4.96.
`COc1ccc(-c2nnc(Nc3nc4c(OC)cccc4s3)o2)c(OC)c1` [5-(2,4-dimethoxyphenyl)-N-(4-methoxy-1,3-benzothiazol-2-yl)-1,3,4-oxadiazol-2-amine] was tested, and the pIC50 was less than 4.18.
`Clc1ccc(C2CC(c3cccs3)n3ncnc3N2)cc1Cl` (centres undefined) [5-(3,4-dichlorophenyl)-7-(2-thienyl)-1,5,6,7-tetrahydro-[1,2,4]triazolo[1,5-a]pyrimidine] gave a pIC50 of less than 4.18.
`Cc1cccc(C2CC(c3ccc(Cl)cc3)Nc3nc(N)nn32)c1` (centres undefined) [5-(4-chlorophenyl)-7-(3-methylphenyl)-1,5,6,7-tetrahydro-[1,2,4]triazolo[1,5-a]pyrimidin-2-amine] was tested, and the pIC50 was less than 4.18.
Work on `O=C(Nc1ccc(Nc2ccccc2)cc1)c1ccc(Br)o1` [5-bromanyl-N-(4-phenylazanylphenyl)furan-2-carboxamide] yielded a pIC50 of less than 4.18.
`COc1ccc(-c2nc(-c3ccc(NC(=O)c4ccc(Br)o4)cc3)no2)cc1OC` [5-bromanyl-N-[4-[5-(3,4-dimethoxyphenyl)-1,2,4-oxadiazol-3-yl]phenyl]furan-2-carboxamide] was tested, and the pIC50 was less than 4.18.
Work on `Cc1nc2c(C#N)c[nH]n2c(=O)c1Cc1ccccc1` [5-methyl-7-oxo-6-(phenylmethyl)-1H-pyrazolo[1,5-a]pyrimidine-3-carbonitrile] yielded a pIC50 of less than 4.18.
In the case of `CCCCCNC(=O)c1ccc2c(=O)[nH]c3c(C(=O)NCC4CCCO4)sc(=S)n3c2c1` (centres undefined) [5-oxo-N3-(2-oxolanylmethyl)-N8-pentyl-1-sulfanylidene-4H-thiazolo[3,4-a]quinazoline-3,8-dicarboxamide], the pIC50 was less than 4.18.
In the case of `Cc1ccsc1C1C2C(=O)CC(C)(C)CC2=Nc2ncnn21` (centres undefined) [6,6-dimethyl-9-(3-methyl-2-thienyl)-1,5,7,9-tetrahydro-[1,2,4]triazolo[5,1-b]quinazolin-8-one], the pIC50 was less than 4.18 and the pKi was less than 4.39.
Work on `Clc1ccc(Cc2nn3c(-c4ccncc4)nnc3s2)cc1` [6-(4-chlorobenzyl)-3-(4-pyridyl)-[1,2,4]triazolo[3,4-b][1,3,4]thiadiazole] yielded a pIC50 of less than 4.18.
With `COc1ccc(-c2nc(N3CCCC3)[nH]c(=O)c2C#N)cc1` [6-(4-methoxyphenyl)-4-oxidanylidene-2-pyrrolidin-1-yl-1H-pyrimidine-5-carbonitrile] the pIC50 was less than 4.18.
`O=C(O)C1CC=CCC1C(=O)N1CCN(c2nc(-c3ccccc3)c3ccccc3n2)CC1` (centres undefined) [6-[4-(4-phenylquinazolin-2-yl)piperazin-1-yl]carbonylcyclohex-3-ene-1-carboxylic acid] showed a pIC50 of less than 4.18.
`COc1cc(-n2nc(C)c3c2OC(=N)C(C#N)C3c2ccccc2)c(Cl)c(Br)c1O` (centres undefined) [6-amino-1-(3-bromo-2-chloro-4-hydroxy-5-methoxyphenyl)-3-methyl-4-phenyl-1,4-dihydropyrano[2,3-c]pyrazole-5-carbonitrile] showed a pIC50 of less than 4.18 and a pKi of less than 4.39.
Compound `CSCCC1c2c(-c3cccs3)n[nH]c2OC(=N)C1C#N` (centres undefined) [6-azanyl-4-(2-methylsulfanylethyl)-3-thiophen-2-yl-2,4-dihydropyrano[2,3-c]pyrazole-5-carbonitrile] has a pIC50 of less than 4.18 and a pKi of less than 4.39.
In the case of `Cc1c(C)c2cc(Cl)c(O)c(CN3CCCCC3)c2oc1=O` [6-chloranyl-3,4-dimethyl-7-oxidanyl-8-(piperidin-1-ylmethyl)chromen-2-one], the pIC50 was less than 4.18.
For `Oc1cc(-c2ccccc2)nc(N2CCN(Cc3ccccc3)CC2)n1` [6-phenyl-2-[4-(phenylmethyl)-1-piperazinyl]-1H-pyrimidin-4-one], the pIC50 was less than 4.18.
`COc1ccc2cnn(-c3ccccc3)c(=O)c2c1OC` [7,8-dimethoxy-2-phenyl-1(2H)-phthalazinone] was tested, and the pIC50 was less than 4.18.
With `COc1ccc2c(=O)c(-c3cnn(-c4ccccc4)c3)c(C)oc2c1` [7-methoxy-2-methyl-3-(1-phenyl-1H-pyrazol-4-yl)-4H-chromen-4-one] the pIC50 was less than 4.18.
`Cc1ccc(C2c3c([nH]c(=S)[nH]c3=O)N=C3CC(C)(C)CC(=O)C32)cc1` (centres undefined) [8,8-dimethyl-5-(4-methylphenyl)-2-sulfanylidene-5,7,9,10-tetrahydro-1H-pyrimido[4,5-b]quinoline-4,6-dione] showed a pIC50 of less than 4.18 and a pKi of less than 4.39.
`COc1ccccc1Oc1c(C)oc2c(CN(C)C)c(O)ccc2c1=O` [8-Dimethylaminomethyl-7-hydroxy-3-(2-methoxy-phenoxy)-2-methyl-chromen-4-one] gave a pIC50 of less than 4.18.
With `COc1ccc(OC)c(C(=O)c2nc3c(n2O)CCCCC3)c1` [(2,5-dimethoxyphenyl)-(3-hydroxy-5,6,7,8-tetrahydro-4H-cyclohept[d]imidazol-2-yl)methanone] the pIC50 was less than 4.18.
`Nc1ccc(Nc2ccccc2N)cc1` [(2-aminophenyl)-(4-aminophenyl)amine] was tested, and the pIC50 was 4.82.
`COC(=O)[C@H](C(C)C)n1c(C)c(C(C)=O)c(C(C)=O)c1C` [(2S)-2-(3,4-diacetyl-2,5-dimethyl-1-pyrrolyl)-3-methylbutanoic acid methyl ester] gave a pIC50 of less than 4.18.
Compound `CC1=C(C(=O)OC(C)C)[C@]2(C(=O)N(CC(N)=O)c3ccccc32)C(C#N)C(=N)O1` (stereo partly drawn) [(3R)-6'-amino-1-(2-amino-2-keto-ethyl)-5'-cyano-2-keto-2'-methyl-spiro[indoline-3,4'-pyran]-3'-carboxylic acid isopropyl ester] has a pIC50 of less than 4.18 and a pKi of less than 4.39.
`C=CCN1C(=O)C2(c3ccccc31)C(C(=O)c1ccc3c(c1)OCCO3)C(=O)C(=O)N2CCCOC` (centres undefined) [(4'E)-1-allyl-4'-[2,3-dihydro-1,4-benzodioxin-6-yl(hydroxy)methylene]-1'-(3-methoxypropyl)spiro[indoline-3,5'-pyrrolidine]-2,2',3'-trione] showed a pIC50 of less than 4.18 and a pKi of less than 4.39.
`CCCS(=O)(=O)N1CCCC(C(=O)N2CCC(Cc3ccccc3)CC2)C1` (centres undefined) [(4-benzylpiperidin-1-yl)-(1-propylsulfonylpiperidin-3-yl)methanone] gave a pIC50 of less than 4.18.
`Cc1ccc(Nc2nc(C3CC3)cs2)cc1` [(4-cyclopropylthiazol-2-yl)-(p-tolyl)amine] gave a pIC50 of less than 4.18.
For `COc1cc(C2C(C(=O)c3ccc4c(c3)CC(C)O4)C(=O)C(=O)N2CCCn2ccnc2)ccc1O` (centres undefined) [(4E)-1-(3-imidazol-1-ylpropyl)-5-(3-methoxy-4-oxidanyl-phenyl)-4-[(2-methyl-2,3-dihydro-1-benzofuran-5-yl)-oxidanyl-methylidene]pyrrolidine-2,3-dione], the pIC50 was less than 4.18 and the pKi was less than 4.39.
In the case of `COCCCN1C(=O)C(=O)C(C(=O)c2ccc3c(c2)CC(C)O3)C1c1cccnc1` (centres undefined) [(4E)-1-(3-methoxypropyl)-4-[(2-methyl-2,3-dihydro-1-benzofuran-5-yl)-oxidanyl-methylidene]-5-pyridin-3-yl-pyrrolidine-2,3-dione], the pIC50 was less than 4.18 and the pKi was less than 4.39.
For `Cc1ccc(C)c(C(=O)C2C(=O)C(=O)N(CCCn3ccnc3)C2c2ccncc2)c1` (centres undefined) [(4E)-4-[(2,5-dimethylphenyl)-hydroxy-methylene]-1-(3-imidazol-1-ylpropyl)-5-(4-pyridyl)pyrrolidine-2,3-quinone], the pIC50 was less than 4.18 and the pKi was less than 4.39.
`Cc1nc2c(C)cccn2c1C(=O)C1C(=O)C(=O)N(CCN2CCOCC2)C1c1cccs1` (centres undefined) [(4E)-4-[(2,8-dimethyl-3-imidazo[1,2-a]pyridinyl)-hydroxymethylidene]-1-[2-(4-morpholinyl)ethyl]-5-thiophen-2-ylpyrrolidine-2,3-dione] showed a pIC50 of less than 4.18 and a pKi of less than 4.39.
`COc1cccc(C2C(C(=O)c3ccc(OC)c(OC)c3)C(=O)C(=O)N2c2cc(C)on2)c1` (centres undefined) [(4E)-4-[(3,4-dimethoxyphenyl)-hydroxy-methylene]-5-(3-methoxyphenyl)-1-(5-methylisoxazol-3-yl)pyrrolidine-2,3-quinone] showed a pIC50 of less than 4.18 and a pKi of less than 4.39.
Compound `COCCCN1C(=O)C(=O)C(C(=O)c2ccc(OC)cc2C)C1c1cccnc1` (centres undefined) [(4E)-4-[(4-methoxy-2-methyl-phenyl)-oxidanyl-methylidene]-1-(3-methoxypropyl)-5-pyridin-3-yl-pyrrolidine-2,3-dione] has a pIC50 of less than 4.18 and a pKi of less than 4.39.
With `COCCCN1C(=O)C(=O)C(C(=O)c2ccccc2)C1c1ccc2c(c1)OCO2` (centres undefined) [(4E)-5-(1,3-benzodioxol-5-yl)-1-(3-methoxypropyl)-4-[oxidanyl(phenyl)methylidene]pyrrolidine-2,3-dione] the pIC50 was less than 4.18 and the pKi was less than 4.39.
`COc1ccc(C(=O)C2C(=O)C(=O)N(Cc3ccco3)C2c2ccc(OC)cc2OC)cc1` (centres undefined) [(4E)-5-(2,4-dimethoxyphenyl)-1-(2-furanylmethyl)-4-[hydroxy-(4-methoxyphenyl)methylidene]pyrrolidine-2,3-dione] gave a pIC50 of less than 4.18 and a pKi of less than 4.39.
